Measurements from patent US7713960B2, “Inhibition of the Raf/Mek/P-Erk pathway for treating cancer” (University of South Florida, priority 2005, dated 2010).
Where “and” joins values, the source holds several entries; their conditions need not be identical. Equal values may be shown once. Where a name gives a salt, the structure may show the parent alone.

Tests used:
[1] = system: ACHN cells; test: Nude mouse xenograft model, ACHN (s.c.); assay type: in vivo, nude mice; settings: i.p. 200 mpk/day
Text: Anti-tumor activity in nude mouse xenograft model—Female athymic nude (nu/nu) mice, 5-6 weeks old, were purchased from Charles River (Wilmington, Mass.) and allowed to acclimate in the animal facility for one week. After harvesting, A-549, SNB-19, ACHN, and HCT-116 cells were, resuspended in sterile PBS, and injected s.c. into the right and left flanks (10×10^6 cells per flank) of the mice as previously described (Sun et al., 2005). For MDA-MB-231, cells were harvested and resuspended in PBS (10×10^6 cells per 50 μl) and an equal volume of Matrigel (BD Biosciences, San Jose, Calif.). 100 μl of MDA-MB-231 cells in PBS/Matrigel were injected s.c. into the mammary fat pads between the 2nd and 3rd nipples on each side of the mice. Once the tumors reached approximately 200-300 mm^3 the mice were randomized and treated i.p. with 0.1 ml vehicle (PBS) or ARA-211. Each treatment group consisted of five mice (2 tumors per mouse, a total of 10 tumors). The tumor volumes were determined by measuring the length (l) and width (w) and calculating the volume (V=w^2l/2). Statistical significance between the control and treated animals was determined using a student's t test.

[2] = system: A-549 cells; test: Apoptosis assay (Cell Death Detection ELISA), A-549; assay type: cell-based, human; settings: 48 hours, two single values, dihydrochloride
Protocol: (§1) Apoptosis Assay—Apoptosis was analyzed using the Cell Death Detection ELISA (Roche, Indianapolis, Ind.) measuring cytoplasmic histone-associated mono- and oligonucleosome DNA fragments. Procedures were carried out according to the manufacturers protocol. Briefly, 1×10^5 cells were plated in 60 mm dishes and treated with various doses of ARA-211 or vehicle for 48 hours. Cells were lysed with the provided lysis buffer and lysate was incubated on the ELISA plate for 1 hour to capture the histone associated DNA indicative of apoptotic cells. Anti-DNA peroxidase conjugated antibody was added to detect the cleaved DNA and the microplate was washed and developed with ABTS substrate which was quantitated by microplate reader at 405 nm.

[3] = system: P-Erk 1/2; test: P-Erk 1/2 levels (Western blotting), A-549; assay type: cell-based, human
Protocol: (§2) Western Blotting—Treated cell samples were lysed in 30 mM HEPES, 10 mM NaCl, 5 mM MgCl2, 25 mM NaF, 1 mM EGTA, 1% Triton-X-100, 10% Glycerol, 2 mM Sodium orthovanidate, 10 μg/mL aprotinin, 10 μg/mL soybean trypsin inhibitor, 25 μg/mL leupeptin, 2 mM phenylmethylsulfonylfluoride (PMSF), 6.4 mg/mL p-nitrophenylphosphate for 30 minutes at 4° C., and proteins run on SDS-PAGE gels then transferred to nitrocellulose membranes. Membranes were blocked in either 5% milk in PBS, pH 7.4, containing 0.1% Tween-20 (PBS-T) or 1% BSA in TBS, pH 7.5, containing 0.1% Tween-20 (TBS-T). Phospho-STAT3 and phospho-AKT antibodies were diluted in 1% BSA in TBS-T while phospho-c-Raf, phospho-Mek, and phospho-p44/p42 MAPK antibodies (Cell Signaling) were diluted in 5% milk in PBS-T for either 1 hour at room temperature or overnight at 4° C. HRP-conjugated secondary antibodies (Jackson ImmunoResearch, West Grove, Pa.) were diluted in 5% milk in PBS-T or TBS-T at a 1:1000 dilution for one hour at room temperature. Western blots results were visualized using enhanced chemiluminescence. Stripping of the membranes for reblotting was done using stripping buffer (62.5 mM Tris pH 7.6, 2% SDS, 0.7% 2-mercaptoethanol) at 50° C. for 30 minutes.

[4] = system: MDA-MB-231 cells; test: Apoptosis assay (Cell Death Detection ELISA), MDA-MB-231; assay type: cell-based, human; settings: 48 hours
Protocol: as §1

[5] = system: c-Raf-1; test: In vivo kinase assay, intact MDA-MB-231 cells treated, c-Raf-1; assay type: cell-based, human; settings: 10 μM
Protocol: In Vitro Kinase Assays—MDA-MB-231 cells (2×10^6) were lysed for 30 minutes at 4° C. in RIPA-150 buffer (10 mM Tris pH 7.5, 150 mM NaCl, 10% glycerol, 5 mM EDTA, 1% Triton X-100, 0.1% SDS, 100 μM sodium orthovanadate, 1 μM aprotinin, 10 μM leupeptin, 10 μM antipain). Cell debris was pelleted at 13000 rpm for 15 minutes at 4° C. and the lysate was rocked overnight with 10 μg of either c-Raf or MEK antibodies (Santa Cruz Biotechnologies, Santa Cruz, Calif.). 25 μl of protein A/G PLUS agarose (Santa Cruz Biotechnology) was then added and rocked for 4 hours at 4° C. Samples were spun at 2000 rpm for 5 minutes to collect the agarose beads, which were then washed four times with lysis buffer. On the final wash each pellet was divided into 5. […]

[6] = system: P-Akt; test: P-Akt levels (Western blotting), MDA-MB-231; assay type: cell-based, human
Protocol: as §2

[7] = system: SF-539 cells; test: Apoptosis assay (Cell Death Detection ELISA), SF-539; assay type: cell-based, human; settings: 48 hours
Protocol: as §1

[8] = system: SNB-19 cells; test: Anchorage-independent growth (soft agar assay), SNB-19; assay type: cell-based, human
Protocol: Soft Agar Assay—Anchorage independent growth assays were performed as previously described (Lerner et al., 1997). Briefly, agar was diluted to 0.3% in propagation media containing 20,000 cells and either vehicle or ARA-211 and 1 ml of cell/agar mixture plated on top of 2 ml of a 0.6% layer of agar in medium alone. Cells were grown for three to four weeks at 37° C., 10% Co2 and were fed weekly with 100 μl per well of media/treatment. Quantification of colonies was done using a GS-700 scanning densitometer.

Question: `CC(C)(C)NCC(O)c1ccc(O)c(CO)n1` (centres unmarked) [ARA-211, 2-hydroxymethyl-3-hydroxy-6-(1-hydroxy-2-tert-butylaminoethyl) pyridine, dihydrochloride] was tested. Which growth of tumors [1] did it give?
Answer: Its growth of tumors is “suppressed tumor growth”.

Question: And the “Apoptosis (% Induction)” value [2]?
Answer: The value was 3.1% and 2.2%.

Question: What about the “P-Erk ½ (% Inhibition)” value [3] of the same compound?
Answer: Its value is 0%.

Question: And the “Apoptosis (% Induction)” value [4]?
Answer: Its value is 15 ± 4%.

Question: What about the “c-Raf-1 kinase activity, intact cells first treated” value [5] of the same compound?
Answer: Its value is “blocked”.

Question: And the P-Akt levels [6]?
Answer: Its P-Akt levels is “not”.

Question: And the “Apoptosis (% Induction)” value [7]?
Answer: The value was 9 ± 1.7%.

Question: What about the “Anchorage Independent Growth (% Inhibition)” value [8] of the same compound?
Answer: The value was 5.1 ± 5.0%.
